The compounds below were run against Acetylcholinesterase (Homo sapiens, UniProt P22303).
Acetylcholinesterase, sequence (P22303 whole entry): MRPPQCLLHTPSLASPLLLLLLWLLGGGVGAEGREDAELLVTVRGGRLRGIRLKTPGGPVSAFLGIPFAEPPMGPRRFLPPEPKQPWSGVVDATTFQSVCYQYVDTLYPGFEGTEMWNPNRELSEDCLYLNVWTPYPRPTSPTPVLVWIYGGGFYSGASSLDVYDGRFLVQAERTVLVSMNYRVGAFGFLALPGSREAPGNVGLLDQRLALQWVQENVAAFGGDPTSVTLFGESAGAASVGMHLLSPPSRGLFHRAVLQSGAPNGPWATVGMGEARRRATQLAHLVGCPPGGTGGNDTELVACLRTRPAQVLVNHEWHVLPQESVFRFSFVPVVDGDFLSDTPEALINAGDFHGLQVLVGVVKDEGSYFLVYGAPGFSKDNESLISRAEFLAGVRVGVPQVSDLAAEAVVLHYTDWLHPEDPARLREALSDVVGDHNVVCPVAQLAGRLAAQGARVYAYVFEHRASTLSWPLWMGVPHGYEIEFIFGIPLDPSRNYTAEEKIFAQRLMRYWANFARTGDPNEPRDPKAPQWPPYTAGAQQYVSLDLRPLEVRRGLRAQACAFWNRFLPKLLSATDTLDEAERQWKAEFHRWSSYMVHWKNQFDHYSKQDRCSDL
`c1ccc2c(NCCCCCCCCNc3c4c(nc5ccccc35)CCCC4)ccnc2c1` showed an IC50 of 0.0088 µM.
Compound `c1ccc2c(NCCCCCCCCCNc3c4c(nc5ccccc35)CCCC4)ccnc2c1` has an IC50 of 0.038 µM.
Compound `COc1cc2c(cc1OC)C(O)C(CC1CCN(c3ccccc3)CC1)C2` (stereo unspecified) has an IC50 of 0.3 µM.
For `CNC(=O)Oc1cccc(CN(C)CCCOc2ccc3c(c2)O/C(=C\c2cc(O)c(O)c(O)c2)C3=O)c1`, the IC50 was 0.00299 µM.
Compound `c1ccc2c(NCCCCCCNc3c4c(nc5ncccc35)CCCCC4)c3c(nc2c1)CCCCC3` has an IC50 of 0.0025 µM.
`O=C1c2ccccc2CCC1CC1CCN(c2ccccc2)CC1` (stereo unspecified) gave an IC50 of 2.1 µM.
`O=C1c2ccccc2CCCC1CC1CCN(c2ccccc2)CC1` (stereo unspecified) gave an IC50 of 15 µM.
For `COc1cc2c(cc1OC)C(=O)C(CC1CCN(c3ccccc3)CC1)C2` (stereo unspecified), the IC50 was 0.0057 µM.
In the case of `O=C(CCc1c[nH]c2ccccc12)NCCCCCCNc1c2c(nc3ccccc13)CCCC2`, the IC50 is reported as 2e-05 µM.
`O=C(CCc1c[nH]c2ccccc12)NCCCCCCCNc1c2c(nc3ccccc13)CCCC2` gave an IC50 of 6e-05 µM.
With `Cc1ccc2nc3c(c(Nc4ccccc4)c2c1)CCCC3` the IC50 was 3.7 µM.
`O=C(CCc1c[nH]c2ccccc12)NCCCCCCCCCCNc1c2c(nc3cc(Cl)ccc13)CCCC2` gave an IC50 of 0.0219 µM.
With `O=C(CCOCCc1c[nH]c2ccccc12)NCCCCCCNc1c2c(nc3cc(Cl)ccc13)CCCC2` the IC50 was 0.0007 µM.
For `O=C(CCOCCc1c[nH]c2ccccc12)NCCCCCCCNc1c2c(nc3cc(Cl)ccc13)CCCC2`, the IC50 was 0.003 µM.
For `Cc1ccc2c(Nc3ccccc3)c3c(nc2c1)CCCC3`, the IC50 was 0.75 µM.
`Clc1ccc2c(Nc3ccccc3)c3c(nc2c1)CCCC3` showed an IC50 of 0.17 µM.
`Nc1c2c(nc3ccccc13)-c1cc(Br)ccc1CC2` showed an IC50 of 144 µM.
For `O=[N+]([O-])c1ccc2nc3c(c(Nc4ccccc4)c2c1)CCCC3`, the IC50 was 1.6 µM.
Compound `O=[N+]([O-])c1ccc2c(Nc3ccccc3)c3c(nc2c1)CCCC3` has an IC50 of 4.8 µM.
`O=C1c2ccccc2CC1CC1CCN(c2ccccc2)CC1` (stereo unspecified) gave an IC50 of 0.15 µM.
With `COc1cc2c(cc1OC)CC(CC1CCN(c3ccccc3)CC1)=C2` the IC50 was 4.4 µM.
Work on `CCCc1cc(N2CCC=N2)ccc1C(=O)ON=C(N)c1ccc(C(F)(F)F)cc1` yielded an IC50 of 13 µM.
With `Nc1ccc2c(c1)c(-c1ccccc1)[n+](CCCNCCCNCCCNc1c3c(nc4ccccc14)CCCC3)c1cc(N)ccc21` the IC50 was 0.00149 µM.
`COc1ccccc1CN(C)CCCN(C)CCCNCCC[n+]1c(-c2ccccc2)c2cc(N)ccc2c2ccc(N)cc21` gave an IC50 of 0.894 µM.
Work on `CNC(=O)Oc1cccc(CN(C)CCCCCCCOc2ccc3c(c2)O/C(=C\c2cc(O)c(O)c(O)c2)C3=O)c1` yielded an IC50 of 0.00052 µM.
With `CNC(=O)Oc1cccc(CN(C)CCCCCCCOc2ccc3c(c2)C/C(=C\c2cc(O)c(O)c(O)c2)C3=O)c1` the IC50 was 0.0018 µM.
`CNC(=O)Oc1cccc(CN(C)CCCCCCCOc2ccc3c(c2)OC/C(=C/c2cc(O)c(O)c(O)c2)C3=O)c1` showed an IC50 of 0.00981 µM.
With `CNC(=O)Oc1cccc(CN(C)CCCCCCCOc2ccc3c(c2)CC/C(=C/c2cc(O)c(O)c(O)c2)C3=O)c1` the IC50 was 0.00494 µM.
Work on `O=C(CCOCCc1c[nH]c2ccccc12)NCCCCCNc1c2c(nc3cc(Cl)ccc13)CCCC2` yielded an IC50 of 0.0015 µM.
Work on `CC1Cc2c(nc3ccccc3c2N)C1(C)O` (stereo unspecified) yielded an IC50 of 134 µM.
Compound `Nc1c2c(nc3ccccc13)-c1ccccc1NCC2` has an IC50 of 69.4 µM.
For `Nc1c2ccccc2nc2c1cnc1cc(Cl)ccc12`, the IC50 was 1000 µM.
With `COc1ccc2c(c1)CCc1c-2nc2ccccc2c1N` the IC50 was 47 µM.
In the case of `Nc1c2c(nc3ccccc13)CCCc1ccccc1-2`, the IC50 is reported as 38.2 µM.
`Nc1c2c(nc3ccccc13)CCC2` was tested, and the IC50 was 0.056 µM.
With `CCCCC1=C(C)Cc2c1nc1ccccc1c2N` the IC50 was 25 µM.
In the case of `CC1=C(C)c2nc3ccccc3c(N)c2C1`, the IC50 is reported as 3.5 µM.
`CCCCC1(O)c2nc3ccccc3c(N)c2CC1C` (stereo unspecified) showed an IC50 of 91 µM.
For `COc1ccc2c(c1)CCCc1c-2nc2ccccc2c1N`, the IC50 was 68.8 µM.
Compound `CC(Cc1ccc(O)cc1)C1CCC(C)C(c2ccc(O)cc2)C1` (stereo unspecified) has an IC50 of 0.62 µM.
`Cc1c(/N=C/c2ccccc2O)cc2c(c1N)C(C)(C)CC2(C)C` gave an IC50 of 16 µM.
With `Cc1nc(N)ncc1-c1nnnn1-c1ccc(-c2ccccc2)cc1` the IC50 was 27 µM.
Compound `Fc1ccc(N(Cc2ccc3c(c2)OCO3)C(=S)Nc2cccc(C(F)(F)F)c2)cc1` has an IC50 of 8 µM.
`Cc1cc(C2(c3cc(C)c(O)c(C)c3)CCCCC2)cc(C)c1O` was tested, and the IC50 was 15 µM.
`O=C(CC1S/C(=N/c2ccc(C3CCCCC3)cc2)NC1=O)Nc1ccc(OC(F)(F)F)cc1` (stereo unspecified) showed an IC50 of 2.9 µM.
`CN(C)c1ccc(-c2c3cc(O)c(=O)cc-3oc3cc(O)c(O)cc23)cc1` was tested, and the IC50 was 22 µM.
Compound `COc1ccc(/N=C/c2cn(-c3ccc(OC)cc3)cc2/C=N/c2ccc(OC)cc2)cc1` has an IC50 of 14 µM.
`N#Cc1ccc2[nH]cc(CCC(=O)NCCCCCCNc3c4c(nc5cc(Cl)ccc35)CCCC4)c2c1` gave an IC50 of 0.0007 µM.
Compound `O=C(Cc1c[nH]c2ccccc12)NCCCCCCCNc1c2c(nc3cc(Cl)ccc13)CCCC2` has an IC50 of 0.0002 µM.
`O=C(NCCCCCCCCNc1c2c(nc3cc(Cl)ccc13)CCCC2)c1c[nH]c2ccccc12` gave an IC50 of 0.046 µM.
In the case of `O=C(CCc1c[nH]c2ccccc12)NCCCCCNc1c2c(nc3ccccc13)CCCC2`, the IC50 is reported as 0.07 µM.
In the case of `O=C(/C=C/c1c[nH]c2ccccc12)NCCCCCCNc1c2c(nc3cc(Cl)ccc13)CCCC2`, the IC50 is reported as 0.018 µM.
Work on `CN(CCCNC(=O)CCc1c[nH]c2ccccc12)CCCNc1c2c(nc3ccccc13)CCCC2` yielded an IC50 of 0.147 µM.
`O=C(NCCCCCCNc1c2c(nc3cc(Cl)ccc13)CCCC2)c1c[nH]c2ccccc12` showed an IC50 of 0.033 µM.
`O=C(CCCc1c[nH]c2ccccc12)NCCCCCNc1c2c(nc3cc(Cl)ccc13)CCCC2` gave an IC50 of 0.0003 µM.
`O=C(Cc1c[nH]c2ccc(Br)cc12)NCCCCCCCNc1c2c(nc3cc(Cl)ccc13)CCCC2` was tested, and the IC50 was 0.0006 µM.
`Clc1ccc2c(NCCCCCCCNc3c4c(nc5cc(Cl)ccc35)CCCC4)c3c(nc2c1)CCCC3` showed an IC50 of 7e-05 µM.
In the case of `Fc1ccc2c(NCCCCCCCCNc3c4c(nc5cc(F)ccc35)CCCC4)c3c(nc2c1)CCCC3`, the IC50 is reported as 0.0007 µM.
Compound `Nc1c2c(nc3ccccc13)-c1ccccc1NCCC2` has an IC50 of 391 µM.
`O=C(OC1Cc2c(O)cc(O)cc2OC1c1ccc(O)c(O)c1)c1cc(O)c(O)c(O)c1` (stereo unspecified) was tested, and the IC50 was 28 µM.
Compound `Nc1c2c(nc3ccccc13)CCCCC2` has an IC50 of 0.039 µM.
For `CC12CCC(c3c1nc1ccccc1c3N)C2(C)C` (stereo unspecified), the IC50 was 110 µM.
`Nc1c2c(nc3ccccc13)-c1ccccc1CCC2` gave an IC50 of 166 µM.
`CNC(=O)Oc1cccc(CN(C)CCCCCCCOc2ccc3c(c2)O/C(=C\c2cccc4ccccc24)C3=O)c1` was tested, and the IC50 was 0.00209 µM.
For `CN(CCCNC(=O)CCc1c[nH]c2ccccc12)CCCNc1c2c(nc3cc(Cl)ccc13)CCCC2`, the IC50 was 0.0029 µM.
`O=C(NCCCCCNc1c2c(nc3cc(Cl)ccc13)CCCC2)c1c[nH]c2ccccc12` gave an IC50 of 0.18 µM.
`O=C(NCCCCCCCNc1c2c(nc3cc(Cl)ccc13)CCCC2)c1n[nH]c2ccccc12` gave an IC50 of 0.095 µM.
`O=C(NCCCCCCCNc1c2c(nc3cc(Cl)ccc13)CCCC2)c1c[nH]c2ccccc12` showed an IC50 of 0.036 µM.
With `O=C(CCc1c[nH]c2ccccc12)NCCCCCCCCNc1c2c(nc3cc(Cl)ccc13)CCCC2` the IC50 was 0.0005 µM.
`Cn1cc(C(=O)NCCCCCCCNc2c3c(nc4cc(Cl)ccc24)CCCC3)c2ccccc21` gave an IC50 of 0.0109 µM.
Compound `O=C(CCCc1c[nH]c2ccccc12)NCCCCCCNc1c2c(nc3cc(Cl)ccc13)CCCC2` has an IC50 of 0.0005 µM.
`Nc1c2c(nc3ccccc13)-c1ccccc1C2` showed an IC50 of 0.35 µM.
`Clc1ccc2c(NCCCCCCNc3c4c(nc5cc(Cl)ccc35)CCCC4)c3c(nc2c1)CCCC3` gave an IC50 of 0.0006 µM.
In the case of `c1ccc2c(NCCCCCCNc3c4c(nc5ccccc35)CCCC4)c3c(nc2c1)CCCC3`, the IC50 is reported as 0.0014 µM.
`Fc1ccc2c(NCCCCCCCNc3c4c(nc5cc(F)ccc35)CCCC4)c3c(nc2c1)CCCC3` showed an IC50 of 0.0006 µM.
For `Fc1ccc2c(NCCCCCCNc3c4c(nc5cc(F)ccc35)CCCC4)c3c(nc2c1)CCCC3`, the IC50 was 0.0009 µM.
Compound `c1ccc2c(NCCCCCCCNc3c4c(nc5ccccc35)CCC4)c3c(nc2c1)CCC3` has an IC50 of 0.075 µM.
`c1cnc2nc3c(c(NCCCCCCCNc4c5c(nc6ncccc46)CCCC5)c2c1)CCCC3` was tested, and the IC50 was 0.0013 µM.
Compound `Nc1c2c(nc3ccccc13)-c1ccccc1CC2` has an IC50 of 37 µM.
With `CC(C)c1cc(-c2ccccc2)nnc1NCCC1CCN(Cc2ccccc2)CC1` the IC50 was 0.43 µM.
Compound `CCc1cc(=NCCC2CCN(Cc3ccccc3)CC2)[nH]nc1-c1ccccc1` has an IC50 of 0.027 µM.
`Cc1cc(=NCCC2CCN(Cc3ccccc3)CC2)[nH]nc1-c1ccccc1` was tested, and the IC50 was 0.021 µM.
Compound `CCCc1cc(=NCCC2CCN(Cc3ccccc3)CC2)[nH]nc1-c1ccccc1` has an IC50 of 0.061 µM.
`c1ccc(CN2CCC(CCN=c3[nH]nc(-c4ccccc4)c4ccccc34)CC2)cc1` showed an IC50 of 0.44 µM.
`Cc1cc(-c2ccccc2)nnc1NCCC1CCN(Cc2ccccc2)CC1` gave an IC50 of 0.32 µM.
Work on `N#Cc1cc(-c2ccccc2)nnc1NCCN1CCOCC1` [BAZINAPRINE] yielded an IC50 of 100 µM.
`COc1ccccc1CN(C)CCCCCC(=O)N(C)CCCCCCCCN(C)C(=O)CCCCCN(C)Cc1ccccc1OC` [CAPROCTAMINE] showed an IC50 of 0.104 µM.
Work on `COc1cc(N)c(Cl)cc1C(=O)NC1CCN(Cc2ccccc2)CC1` [CLEBOPRIDE] yielded an IC50 of 0.89 µM.
For `O=C(Nc1cccc(C2=NCCN2)c1)Nc1cccc(C2=NCCN2)c1` [IMIDOCARB], the IC50 was 0.59 µM.
In the case of `Cc1cc(-c2ccccc2)nnc1NCCN1CCOCC1` [MINAPRINE], the IC50 is reported as 85 µM.
